In assay [1] the target is NQO1 protein (Homo sapiens, UniProt P15559). As to the kind of experiment: NQO1 activity measurement (cytochrome C reduction). It is filed as biochemical. The following applies: 5 ng NQO1 protein, 200 μM NADH, 77 μM cytochrome C, 37° C., absorbance 550 nm for 10 minutes.
Assay [2] concerns Cells. The assay can be described thus: Measurement of lactate change amount within cells. It counts as cell-based. To be noted: PCA extract of cells, lactate measured from supernatant (Megazyme, K-LATE). The method, boiled down: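 Cells were extracted in 6% perchloric acid and centrifuged (13,000 rpm, 10 min), and the dried pellet was weighed. The supernatant was neutralised with 1 M KOH, brought up in 0.33 M potassium phosphate pH 7.5 and re-centrifuged. Lactate was measured in this supernatant with a commercial lactate kit.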

The test system of assay [3] is C57BLKS/J db/db mice. As to the kind of experiment: Weight loss effects and blood sugar in diabetic mice (db/db). It counts as in vivo. The following applies: four weeks, vs 0.1% SLS controls. The protocol:
7 week-old C57BLKS/J db/db mice (chales river laboratories Japan, Inc) having genetic diabetic characteristics available from ORIENTBIO were prepared. Two mice were raised in each polycarbonate breeding cage (200 W×260 L×130H (mm), Three-shine) in which temperature was 22 to 24° C., relative humidity was 30 to 50%, illuminance was 150 to 300 lux, night and day were 12 hours, and exhaust was performed at 10 to 15 air changes per hour. As a feed, low fat diet (11.9 kcal % fat, 5053, Labdiet) manufactured by ORIENTBIO was used. The feed was contained in a feeder and free intake was allowed. As drinking water, water, which was contained in a 250 mL polycarbonate based bottle, purified through a filter and a sterilizer was used and free intake was allowed.
The compound according to Example 1 synthesized in the present invention was orally administered to three C57BLKS/J db/db mice in amounts of 40 mg/kg, 80 mg/kg, and 120 mg/kg, respectively, once every day for four weeks. For administration, a disposable syringe fitted with a sonde for oral administration was used and 10 ml/kg of the compound was orally administered into the stomach. As controls, three C57BLKS/J db/db mice were administered 0.1% SLS in an amount of 120 mg/kg in the same manner as described above. After administration, a time-dependent weight increase ratio, weight change, and intake amount were measured and results are illustrated in FIG. 7 below. In addition, blood sugar was measured and results are illustrated in FIG. 8 below.
Weights of the experimental animals were measured immediately before administration of a test material and six times a week from an administration initiation day to a test termination day. Increased total weights were calculated by subtracting weights measured on an experiment initiation day from weights measured one day before an experiment termination day. Food intake amounts were calculated by measuring feed supply amounts and remaining amounts twice a week from an initiation day of test material administration to a test termination day for each individual. Blood sugar was measured before an administration initiation day of the test material and once a week between an administration initiation day and a test termination day.

Setting [4] is: Exp. Ex. 4, FIG. 7: 7 week-old db/db mice, 40, 80, 120 mg/kg oral once every day.

Results on one molecule are retold here after US10766882B2, “1,2-naphthoquinone based derivative and method of preparing the same” (YUNGJIN PHARM. CO., LTD., priority 2013, dated 2020).

SMILES strings stand for the structures.

Chain of NQO1 protein (P15559 whole entry, species assumed): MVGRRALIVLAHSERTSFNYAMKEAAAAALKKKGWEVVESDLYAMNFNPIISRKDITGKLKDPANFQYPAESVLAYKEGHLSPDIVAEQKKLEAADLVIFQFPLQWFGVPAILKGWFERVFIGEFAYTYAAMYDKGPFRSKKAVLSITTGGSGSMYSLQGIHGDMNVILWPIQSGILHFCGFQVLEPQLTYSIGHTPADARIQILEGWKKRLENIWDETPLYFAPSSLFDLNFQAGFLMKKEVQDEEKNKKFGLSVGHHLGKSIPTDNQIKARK

Turning to `CC(C)c1nc2c([nH]1)C(=O)C(=O)c1ccccc1-2` [Example 1, 2-isopropyl-1H-naphtho[2,1-d]imidazole-4,5-dione], the “NQO1 activity (5 μM, [nmol cytochrome C reduced/min/μg protein])” value in assay [1] was 177 nmol cytochrome C reduced/min/μg protein. Also, the “Lactate change amount within cells (nmol/mg cell)” value in assay [2] was determined as 6.1 nmol/mg cell. Moreover, in assay [3] (setting [4]), the intake amount result is on record as “significantly decreased”, the weight change result is given as “significantly decreased” and the weight increase ratio result is “significantly decreased”. In assay [3] (Exp. Ex. 4, FIG. 8: 7 week-old db/db mice, 40, 80, 120 mg/kg oral once every day, measured once a week), the blood sugar amount entry is “significantly decreased”.
